# Assay results published in PMC10425210 (The Journal of Clinical Investigation, 2023).
# Test: Plasma pharmacokinetics after a single subcutaneous administration of LEN
# Type: in vivo, rhesus macaques
# Details: for concentration at 8 week: week 8 post dose; for concentration at 9 week: week 9 post dose; for concentration at 10 week: week 10 post dose; for concentration at 11 week: week 11 post dose; for concentration at 12 week: week 12 post dose; for concentration at 14 week: week 14 post dose
# Description: All animals were housed at Bioqual Inc. For the in vivo SHIV stock titration study, 8 untreated outbred Indian-origin male rhesus macaques aged 3–5 years were challenged intrarectally per round for a total of 5 challenge rounds using increasing virus doses ranging from 0.625 to 100 TCID50, with the 100 TCID50 round performed twice for increased resolution (Supplemental Table 2). Plasma viral load was measured to confirm the infection status. […] Injection sites were monitored daily by veterinary staff for 2 weeks and then weekly through the end of study. On week 7, 11 animals were challenged by the intrarectal route with 1 mL RPMI containing 100 TCID50 SHIV-SF162P3. Whole blood was collected and processed into plasma and PBMCs as necessary for the assessment of routine hematology and clinical chemistry, viral load analysis, serology, and the bioanalysis of drug levels. Animals were considered protected if they remained SHIV negative by a plasma PCR assay and seronegative by enzyme immunoassay through week 10 after challenge.
# Rhesus plasma samples were stored frozen at –80°C and thawed, and a 50 μL aliquot of each was treated with 200 μL acetonitrile containing an internal standard. After precipitation of the protein component, a 100 μL aliquot of the supernatant was transferred to a clean 96-well plate and mixed with 200 μL water. A 10 μL aliquot of the above solution was then injected into a Q-Exactive high resolution mass spectrometer from Thermo Electron with electrospray ionization in positive mode.
# [1] = male, Indian-origin (outbred), rhesus monkey, plasma, subcutaneous, 5 mg/kg, Plasma LEN (Mean), 5 mg/kg sc
# [2] = male, Indian-origin (outbred), rhesus monkey, plasma, subcutaneous, 10 mg/kg, Plasma LEN (Mean), 10 mg/kg sc
# [3] = male, Indian-origin (outbred), rhesus monkey, plasma, subcutaneous, 20 mg/kg, Plasma LEN (Mean), 20 mg/kg sc
compound,measurement,setting,value
"CC(C)(C#Cc1ccc(-c2ccc(Cl)c3c(NS(C)(=O)=O)nn(CC(F)(F)F)c23)c([C@H](Cc2cc(F)cc(F)c2)NC(=O)Cn2nc(C(F)(F)F)c3c2C(F)(F)[C@@H]2C[C@H]32)n1)S(C)(=O)=O [LEN, Lenacapavir]",dose proportionality of exposure,5 to 20 mg/kg sc,dose-proportional increase
same,dose proportionality of exposure,50 to 75 mg/kg sc,more than dose-proportional increase
same,Plasma LEN,"animal BM55, 20 mg/kg, week 0 post challenge",38.60 nM
same,Plasma LEN,"animal BM55, 20 mg/kg, week 6 post challenge",10.80 nM
same,Plasma LEN,"animal BM55, 20 mg/kg, week 7 post challenge",7.10 nM
same,Plasma LEN,"animal BM55, 20 mg/kg, week 8 post challenge",5.30 nM
same,Plasma LEN,"animal BM55, 20 mg/kg, week 9 post challenge",3.80 nM
same,Plasma LEN,"animal BM55, 20 mg/kg, week 10 post challenge",4.10 nM
same,Plasma LEN,"animal BN33, 20 mg/kg, week 0 post challenge",18.60 nM
same,Plasma LEN,"animal BN33, 20 mg/kg, week 6 post challenge",9.10 nM
same,Plasma LEN,"animal BN33, 20 mg/kg, week 7 post challenge",5.71 nM
same,Plasma LEN,"animal BN33, 20 mg/kg, week 8 post challenge",6.90 nM
same,Plasma LEN,"animal BN33, 20 mg/kg, week 9 post challenge",4.70 nM
same,Plasma LEN,"animal BN33, 20 mg/kg, week 10 post challenge",4.50 nM
same,Plasma LEN,"animal CO92, 50 mg/kg, week 0 post challenge",50.08 nM
same,Plasma LEN,"animal CO92, 50 mg/kg, week 1 post challenge",62.65 nM
same,Plasma LEN,"animal CO92, 50 mg/kg, week 2 post challenge",47.76 nM
same,Plasma LEN,"animal CO92, 50 mg/kg, week 3 post challenge",52.01 nM
same,Plasma LEN,"animal CO92, 50 mg/kg, week 4 post challenge",67.23 nM
same,Plasma LEN,"animal CO92, 50 mg/kg, week 5 post challenge",66.62 nM
same,Plasma LEN,"animal CO92, 50 mg/kg, week 6 post challenge",66.12 nM
same,Plasma LEN,"animal CO92, 50 mg/kg, week 7 post challenge",36.27 nM
same,Plasma LEN,"animal CO92, 50 mg/kg, week 8 post challenge",42.04 nM
same,Plasma LEN,"animal CO92, 50 mg/kg, week 9 post challenge",52.87 nM
same,Plasma LEN,"animal CO92, 50 mg/kg, week 10 post challenge",56.39 nM
same,Plasma LEN,"animal CO92, 50 mg/kg, week 11 post challenge",43.33 nM
same,Plasma LEN,"animal CO92, 50 mg/kg, week 12 post challenge",27.05 nM
same,Plasma LEN,"animal CO92, 50 mg/kg, week 13 post challenge",18.50 nM
same,Plasma LEN,"animal CO92, 50 mg/kg, week 14 post challenge",13.10 nM
same,Plasma LEN,"animal CO92, 50 mg/kg, week 15 post challenge",18.82 nM
same,Plasma LEN,"animal CO92, 50 mg/kg, week 16 post challenge",13.67 nM
same,Plasma LEN,"animal CP67, 75 mg/kg, week 8 post challenge",37.09 nM
same,Plasma LEN,"animal CP67, 75 mg/kg, week 9 post challenge",36.45 nM
same,Plasma LEN,"animal CP67, 75 mg/kg, week 10 post challenge",23.67 nM
same,Plasma LEN,"animal CP67, 75 mg/kg, week 11 post challenge",20.33 nM
same,Plasma LEN,"animal V229, 20 mg/kg, week 0 post challenge",37.30 nM
same,Plasma LEN,"animal V229, 20 mg/kg, week 6 post challenge",15.10 nM
same,Plasma LEN,"animal V229, 20 mg/kg, week 7 post challenge",8.33 nM
same,Plasma LEN,"animal V229, 20 mg/kg, week 8 post challenge",6.00 nM
same,Plasma LEN,"animal V229, 20 mg/kg, week 9 post challenge",3.70 nM
same,Plasma LEN,"animal V229, 20 mg/kg, week 10 post challenge",4.60 nM
same,Plasma LEN,"animal V411, 50 mg/kg, week 0 post challenge",143.42 nM
same,Plasma LEN,"animal V411, 50 mg/kg, week 1 post challenge",64.99 nM
same,Plasma LEN,"animal V411, 50 mg/kg, week 2 post challenge",55.43 nM
same,Plasma LEN,"animal V411, 50 mg/kg, week 3 post challenge",47.46 nM
same,Plasma LEN,"animal V411, 50 mg/kg, week 4 post challenge",28.61 nM
same,Plasma LEN,"animal V411, 50 mg/kg, week 5 post challenge",19.46 nM
same,Plasma LEN,"animal V411, 50 mg/kg, week 6 post challenge",17.89 nM
same,Plasma LEN,"animal V411, 50 mg/kg, week 7 post challenge",11.22 nM
same,Plasma LEN,"animal V411, 50 mg/kg, week 8 post challenge",7.46 nM
same,Plasma LEN,"animal V411, 50 mg/kg, week 9 post challenge",7.40 nM
same,Plasma LEN,"animal V411, 50 mg/kg, week 10 post challenge",5.89 nM
same,Plasma LEN,"animal V411, 50 mg/kg, week 11 post challenge",3.67 nM
same,Plasma LEN,"animal V411, 50 mg/kg, week 12 post challenge",2.40 nM
same,Plasma LEN,"animal V411, 50 mg/kg, week 13 post challenge",3.03 nM
same,Plasma LEN,"animal V411, 50 mg/kg, week 14 post challenge",2.52 nM
same,Plasma LEN,"animal V411, 50 mg/kg, week 15 post challenge",2.21 nM
same,Plasma LEN,"animal V411, 50 mg/kg, week 16 post challenge",1.79 nM
same,Plasma LEN,"animal V417, 75 mg/kg, week 8 post challenge",23.00 nM
same,Plasma LEN,"animal V417, 75 mg/kg, week 9 post challenge",32.44 nM
same,Plasma LEN,"animal V417, 75 mg/kg, week 10 post challenge",33.77 nM
same,Plasma LEN,"animal V426, 75 mg/kg, week 8 post challenge",36.31 nM
same,Plasma LEN,"animal V426, 75 mg/kg, week 9 post challenge",52.45 nM
same,Plasma LEN,"animal V426, 75 mg/kg, week 10 post challenge",38.56 nM
same,Plasma LEN,"animal V426, 75 mg/kg, week 11 post challenge",38.65 nM
same,Plasma LEN,"animal V430, 50 mg/kg, week 0 post challenge",117.17 nM
same,Plasma LEN,"animal V430, 50 mg/kg, week 1 post challenge",47.07 nM
same,Plasma LEN,"animal V430, 50 mg/kg, week 2 post challenge",55.06 nM
same,Plasma LEN,"animal V430, 50 mg/kg, week 3 post challenge",44.89 nM
same,Plasma LEN,"animal V430, 50 mg/kg, week 4 post challenge",40.12 nM
same,Plasma LEN,"animal V430, 50 mg/kg, week 5 post challenge",30.18 nM
same,Plasma LEN,"animal V430, 50 mg/kg, week 6 post challenge",23.37 nM
same,Plasma LEN,"animal V430, 50 mg/kg, week 7 post challenge",9.85 nM
same,Plasma LEN,"animal V430, 50 mg/kg, week 8 post challenge",6.90 nM
same,Plasma LEN,"animal V430, 50 mg/kg, week 9 post challenge",7.41 nM
same,Plasma LEN,"animal V430, 50 mg/kg, week 10 post challenge",7.29 nM
same,Plasma LEN,"animal V430, 50 mg/kg, week 11 post challenge",3.38 nM
same,Plasma LEN,"animal V430, 50 mg/kg, week 12 post challenge",2.44 nM
same,Plasma LEN,"animal V430, 50 mg/kg, week 13 post challenge",1.41 nM
same,Plasma LEN,"animal V430, 50 mg/kg, week 14 post challenge",1.81 nM
same,Plasma LEN,"animal V430, 50 mg/kg, week 15 post challenge",1.32 nM
same,Plasma LEN,"animal V435, 75 mg/kg, week 7 post challenge",3.85 nM
same,Plasma LEN,"animal V435, 75 mg/kg, week 8 post challenge",2.05 nM
same,Plasma LEN,"animal V435, 75 mg/kg, week 9 post challenge",2.10 nM
same,Plasma LEN,"animal V435, 75 mg/kg, week 10 post challenge",1.92 nM
same,Plasma LEN,"animal V470, 50 mg/kg, week 0 post challenge",100.49 nM
same,Plasma LEN,"animal V470, 50 mg/kg, week 1 post challenge",40.04 nM
same,Plasma LEN,"animal V470, 50 mg/kg, week 2 post challenge",48.42 nM
same,Plasma LEN,"animal V470, 50 mg/kg, week 3 post challenge",50.54 nM
same,Plasma LEN,"animal V470, 50 mg/kg, week 4 post challenge",46.19 nM
same,Plasma LEN,"animal V470, 50 mg/kg, week 5 post challenge",35.17 nM
same,Plasma LEN,"animal V470, 50 mg/kg, week 6 post challenge",44.02 nM
same,Plasma LEN,"animal V470, 50 mg/kg, week 7 post challenge",26.59 nM
same,Plasma LEN,"animal V470, 50 mg/kg, week 8 post challenge",17.23 nM
same,Plasma LEN,"animal V470, 50 mg/kg, week 9 post challenge",20.99 nM
same,Plasma LEN,"animal V470, 50 mg/kg, week 10 post challenge",19.02 nM
same,Plasma LEN,"animal V470, 50 mg/kg, week 11 post challenge",17.74 nM
same,Plasma LEN,"animal V470, 50 mg/kg, week 12 post challenge",12.55 nM
same,Plasma LEN,"animal V470, 50 mg/kg, week 13 post challenge",11.15 nM
same,Plasma LEN,"animal V470, 50 mg/kg, week 14 post challenge",8.52 nM
same,Plasma LEN,"animal V470, 50 mg/kg, week 15 post challenge",6.58 nM
same,Plasma LEN,"animal V470, 50 mg/kg, week 16 post challenge",6.37 nM
same,duration of plasma exposures above the paEC95 (8.8 nM),eleven animals of the 3 highest dosing groups,over 10 weeks
same,concentration at 8 week,[1],4.42 nM
same,concentration at 9 week,[1],5.79 nM
same,concentration at 10 week,[1],3.41 nM
same,concentration at 11 week,[1],4.16 nM
same,concentration at 12 week,[1],1.87 nM
same,concentration at 14 week,[1],1.45 nM
same,concentration at 8 week,[2],9.6 nM
same,concentration at 9 week,[2],10.1 nM
same,concentration at 10 week,[2],8.41 nM
same,concentration at 11 week,[2],5.96 nM
same,concentration at 12 week,[2],5.13 nM
same,concentration at 14 week,[2],3.63 nM
same,concentration at 8 week,[3],26.1 nM
same,concentration at 9 week,[3],28 nM
same,concentration at 10 week,[3],27.9 nM
same,concentration at 11 week,[3],15 nM
same,concentration at 12 week,[3],9.8 nM
same,concentration at 13 week,"male, Indian-origin (outbred), rhesus monkey, plasma, subcutaneous, 20 mg/kg, Plasma LEN (Mean), 20 mg/kg sc, week 13 post dose",11.7 nM
same,concentration at 14 week,[3],7.07 nM
same,concentration at 15 week,"male, Indian-origin (outbred), rhesus monkey, plasma, subcutaneous, 20 mg/kg, Plasma LEN (Mean), 20 mg/kg sc, week 15 post dose",6.07 nM
same,concentration at 16 week,"male, Indian-origin (outbred), rhesus monkey, plasma, subcutaneous, 20 mg/kg, Plasma LEN (Mean), 20 mg/kg sc, week 16 post dose",4.07 nM
same,concentration at 17 week,"male, Indian-origin (outbred), rhesus monkey, plasma, subcutaneous, 20 mg/kg, Plasma LEN (Mean), 20 mg/kg sc, week 17 post dose",4.4 nM
same,concentration at 8 week,"male, Indian-origin (outbred), rhesus monkey, plasma, subcutaneous, 50 mg/kg, Plasma LEN (Mean), 50 mg/kg sc",53.7 nM
